Assay: Stability of daptomycin in a transient daptomycin-linker hydrogel conjugate versus free daptomycin
Format: physicochemical
Details: pH 7.4 and 37° C.; at day seven; UPLC peak area ratio at 215 nm
Description: The relative stability of the covalently bound daptomycin in a transient daptomycin-linker hydrogel conjugate towards hydrolytic and other degradation pathways in comparison to free daptomycin was investigated. […] The supernatant of the carrier sample was exchanged five times within a week and the daptomycin purity in these samples was analyzed by UPLC. In parallel, analytical samples of the free daptomycin control solution were also analyzed by UPLC at the same incubation times. The purity of daptomycin in the samples was calculated as the ratio of the peak area of the intact daptomycin peak at 215 nm relative to the area sum of all daptomycin-related peaks identified at 215 nm.

## CCCCCCCCCC(=O)N[C@@H](Cc1c[nH]c2ccccc12)C(=O)N[C@H](CC(N)=O)C(=O)N[C@@H](CC(=O)O)C(=O)N[C@@H]1C(=O)NCC(=O)N[C@@H](CCCN)C(=O)N[C@@H](CC(=O)O)C(=O)N[C@H](C)C(=O)N[C@@H](CC(=O)O)C(=O)NCC(=O)N[C@H](CO)C(=O)N[C@@H]([C@H](C)CC(=O)O)C(=O)N[C@@H](CC(=O)c2ccccc2N)C(=O)O[C@@H]1C [daptomycin]
  purity of the free daptomycin in the solution control sample: 72%

Reference: US20210330807A1, “NOVEL HYDROGEL CONJUGATES” (priority 2018, published 2021)
